Measurements taken from patent publication US5952366A, “Alkyl ether analogs of chlorins having an N-substituted imide ring” (Health Research, Inc., priority 1998, dated 1999).

Key:
[1] = tested on: Radiation induced fibrosarcoma (RIF) tumors; assay: In vivo tumor response (photodynamic therapy, RIF tumors in C3H mice); details: for Tumor Response (%): 705 nm, 135 J/cm^2, 24 h post injection
Experimental: Radiation induced fibrosarcoma (RIF) tumors, were implanted subcutanaceously into the axilla of 5-7 week old female C3H mice. When tumors grew to about 5 mm in diameter, the mice were injected with various doses of the photosensitizers. The mice (6 mice per group) were restrained in aluminum holders and each tumor illuminated with 135 J/cm^2 of light from a laser tuned at the longest wavelength absorption maximum of the photosensitizers at 705 nm. The percentage of short term control was recorded daily.
*Six mice/group (RIF tumor). 1.0 μmol/kg. 705 nm, 135J/cm^2 (24 h

[2] = human, in vivo; cited from earlier work
[3] = 1.0 μmol/kg, days 1-2, six mice/group

CCCOC(C)c1c(C)c2cc3nc(c4c5[nH]c(cc6nc(cc1[nH]2)C(C)=C6CC)c(C)c5C(=O)N(CCC)C4=O)[C@@H](CCC(=O)OC)[C@@H]3C (stereo partly drawn) [R^1 = propyl, R^2 = propyl]
Tumor Response (%) ([1]; 1.0 μmol/kg, day 7): 33%
Tumor Response (%) ([1]; 1.0 μmol/kg, day 14): 17%
Tumor Response (%) [1, 3]: 100%

CCCCCCCOC(C)c1c(C)c2cc3nc(c4c5[nH]c(cc6nc(cc1[nH]2)C(C)=C6CC)c(C)c5C(=O)N(CCCCCC)C4=O)[C@@H](CCC(=O)OC)[C@@H]3C (stereo partly drawn) [R^1 = heptyl, R^2 = hexyl, heptyl ether analog of N-hexyl purpurin imide]
Tumor Response (%) ([1]; 0.25 μmol, day 7): 60%
Tumor Response (%) ([1]; 0.25 μmol, day 14): 20%
Tumor Response (%) ([1]; 0.25 μmol, day 21): 20%
Tumor Response (%) ([1]; 0.25 μmol, day 30): 20%
Tumor Response (%) ([1]; 0.25 μmol, day 90): 20%
Tumor Response (%) ([1]; 0.25 μmol, days 1-2): 100%
Tumor Response (%) ([1]; 1.0 μmol/kg, day 7): 100%
Tumor Response (%) ([1]; 1.0 μmol/kg, day 14): 100%
Tumor Response (%) ([1]; 1.0 μmol/kg, day 21): 100%
Tumor Response (%) ([1]; 1.0 μmol/kg, day 30): 100%
Tumor Response (%) ([1]; 1.0 μmol/kg, day 90): 83%
Tumor Response (%) [1, 3]: 100%
effectiveness in this series ([1]; dose of 1.0 μmol/kg): most effective

Photofrin
normal tissue clearance [2]: lacks rapid normal tissue clearance
skin photosensitization [2]: photosensitizes the skin

CCCCCCOC(C)c1c(C)c2cc3nc(c4c5[nH]c(cc6nc(cc1[nH]2)C(C)=C6CC)c(C)c5C(=O)N(CCC)C4=O)[C@@H](CCC(=O)OC)[C@@H]3C (stereo partly drawn) [R^1 = hexyl, R^2 = propyl]
Tumor Response (%) ([1]; 0.5 μmol, day 7): 66%
Tumor Response (%) ([1]; 0.5 μmol, day 14): 33%
Tumor Response (%) ([1]; 0.5 μmol, day 21): 17%
Tumor Response (%) ([1]; 0.5 μmol, day 30): 17%
Tumor Response (%) ([1]; 0.5 μmol, day 90): 17%
Tumor Response (%) ([1]; 0.5 μmol, days 1-2): 100%
Tumor Response (%) ([1]; 1.0 μmol/kg, day 7): 83%
Tumor Response (%) ([1]; 1.0 μmol/kg, day 14): 83%
Tumor Response (%) ([1]; 1.0 μmol/kg, day 21): 50%
Tumor Response (%) ([1]; 1.0 μmol/kg, day 30): 33%
Tumor Response (%) ([1]; 1.0 μmol/kg, day 90): 33%
Tumor Response (%) [1, 3]: 100%
